Tests used:
HBV cccDNA = assay: cccDNA inhibition assay (Southern blot of Hirt DNA); assay type: cell-based, hepatitis B virus; details: for inhibition at 1 µM / inhibition at 3 µM / inhibition at 10 µM / inhibition at 30 µM / inhibition at 0.3 µM: Hepatitis B virus, read-out: cccDNA inhibition % Reduction; for inhibition at 30 µM: Concentration 30 μM; for inhibition at 0.3 µM: Concentration 0.3 μM
Description: Cell cultures: HepG2.2.15 cells were maintained in DMEM/F12 medium (Mediatech, Manassas, Va.) supplemented with 10% fetal bovine serum, 100 U/ml penicillin and 100 μg/ml streptomycin, plus 400 μg/ml G418. Tetracycline inducible HBV producer cells, specifically HepDE19 and HepDES19 cells, were maintained in the same way as HepG2.2.15, but with the addition of 1 μg/ml tetracycline (Guo, H., D. Jiang, T. Zhou, A. Cuconati, T. M. Block, and J. T. Guo. 2007). To initiate HBV replication and cccDNA formation in HepDE19 and HepDES19 cells, tetracycline was withdrawn from the culture medium and the cells were cultured for the indicated time period.
Viral nucleic acid analysis: Total cellular RNA was extracted with TRIzol reagent (Invitrogen, Grand Island, N.Y.) by following manufacturer's directions. Ten microgram of total cellular RNA was resolved in 1.5% agarose gel containing 2.2 M formaldehyde and transferred onto Hybond-XL membrane (GE Healthcare, Piscataway, N.J.) in 20×SSC buffer. Intracellular hepadnaviral core DNA and cccDNA (Hirt DNA) were extracted as described previously (Guo, H., D. Jiang, T. Zhou, A. Cuconati, T. M. Block, and J. T. Guo. 2007. Guo, H., D. Jiang, T. Zhou, A. Cuconati, T. M. Block, and J. T. Guo. 2007. Guo, H., R. Mao, T. M. Block, and J. T. Guo. 2010. Guo, H., W. S. Mason, C. E. Aldrich, J. R. Saputelli, D. S. Miller, A. R. Jilbert, and J. E. Newbold. 2005). Half of the DNA samples recovered from one well of a 6-well-plate were resolved by electrophoresis into a 1.2% agarose gel and blotted onto Hybond-XL membrane. Membranes were probed with either an α-^32P-UTP (800 Ci/mmol, Perkin Elmer) labeled hepadnaviral minus (detecting DNA) or plus strand (detecting RNA) specific full-length riboprobe and exposed to a phosphorimager screen (Fuji Film, Tokyo, Japan). Hybridization signals were visualized by Typhoon FLA-7000 (GE Healthcare) and quantified with ImageQuantTL software (GE Healthcare). […]
Identification of compounds that inhibits cccDNA accumulation in HepDES19 cells: Compounds were tested on HepDES19 cells, which have a higher level of cccDNA production than HepDE19 cells (Guo, H., D. Jiang, T. Zhou, A. Cuconati, T. M. Block, and J. T. Guo. 2007). Briefly, after withdrawal of tetracycline, HepDES19 cells were left untreated, or were treated with compound at serial concentrations; tetracycline-free media was changed every other day with fresh compound supplementation. The concentration of DMSO in all experimental groups was normalized at 0.1%. The cells were harvested at day 12, viral RNA (top panel), core DNA (middle panel), and Hirt DNA (DP-rcDNA and cccDNA) (bottom panels) were extracted and analyzed by Northern blot and Southern blot, respectively. Shorter exposure of the Hirt DNA blot was used for the quantitative determination of DP-rcDNA signals. […] The reduction between DP-rcDNA and cccDNA was proportional compared with untreated control. […] Liu, C. P. Hu, and C. Chang. 2005. Guo, H., T. Zhou, D. Jiang, A. Cuconati, G. H. Xiao, T. M. Block, and J. T. Guo. 2007. Zhou, T., H. Guo, J. T. Guo, A. Cuconati, A. Mehta, and T. M. Block. 2006).

[1] = cytotoxicity assay (MTT, CC50); assay type: cell-based; details: human, HepDE19 cells
Description: (§1) Cell plates were then incubated with compound dilutions and controls as described above, and addition of 3-[4,5-dimethylthiazol-2-yl]-2,5-diphenyltetrazolium bromide (MTT, Sigma-Aldrich) was added to a final concentration of 0.5 mg/ml (Mosmann, T. 1983). Plates were again incubated at 37° C. for 4 hrs, after which 10% SDS/0.01N HCl was added to each well in a volume equal to the medium (100 μl), followed by overnight incubation. Absorbance was read in the Rainbow spectrophotometer (Tecan US Inc., Durham, N.C.) at 570 nm (reference wavelength of 630 nm), and analyzed with XLfit 4.0 as described above.

HepDE19 cells = assay: cytotoxicity assay (MTT, CC50); assay type: cell-based
Description: as §1

| SMILES | inhibition at 3 µM (HBV cccDNA; Concentration 3 μM) [%] | inhibition at 10 µM (HBV cccDNA; Concentration 10 μM) [%] | CC50 [1] [µM] | inhibition at 30 µM (HBV cccDNA) [%] | other results |
| --- | --- | --- | --- | --- | --- |
| O=C(CN(c1cc(C(F)(F)F)ccc1Br)S(=O)(=O)c1ccccc1)NCc1ccncc1 [CCC-1002-2] | 30 | 90 | > 50 | – | inhibition at 1 µM (HBV cccDNA; Concentration 1 μM): 30% |
| O=C(CN(c1cc(C(F)(F)F)ccc1F)S(=O)(=O)c1ccccc1)NCc1ccncc1 [CCC-1022-3] | 50 | 75 | > 50 | – | inhibition at 1 µM (HBV cccDNA; Concentration 1 μM): 20% |
| O=C(CN(c1cc(C(F)(F)F)ccc1Cl)S(=O)(=O)c1ccc(F)cc1)NCc1ccncc1 [CCC-Lu25-20] | 20 | 60 | > 50 | 70 | – |
| O=C(CN(c1cc(C(F)(F)F)ccc1Cl)S(=O)(=O)c1ccccc1)NCc1ccncc1 [CCC-Lu25-22] | – | 70 | > 50 | 70 | cccDNA inhibition % Reduction (HBV cccDNA; Concentration 3 μM, 3 µM): 40% |
| O=C(CN(c1cc(C(F)(F)F)ccc1Cl)S(=O)(=O)c1ccc(Cl)cc1)NCc1ccncc1 [CCC-Lu25-32] | 95 | 95 | > 50 | 95 | – |
| Cc1ccc(S(=O)(=O)N(CC(=O)NCc2ccncc2)c2cc(C(F)(F)F)ccc2Cl)cc1 [CCC-Lu25-38] | 95 | 95 | > 50 | 95 | – |
| COc1ccc(S(=O)(=O)N(CC(=O)NCc2ccncc2)c2cc(C(F)(F)F)ccc2Cl)cc1 [CCC-Lu25-39] | 95 | 95 | 49.2 | 95 | – |
| O=C(CN(c1cc(Cl)ccc1F)S(=O)(=O)c1ccccc1)NCc1ccncc1 [CCC-Lu25-41] | 10 | 30 | > 50 | 40 | – |
| O=C(CN(c1cc(C(F)(F)F)ccc1Cl)S(=O)(=O)c1ccc(C(F)(F)F)cc1)NCc1ccncc1 [CCC-Lu25-42] | 90 | 95 | > 50 | – | inhibition at 1 µM (HBV cccDNA; Concentration 1 μM): 20% |
| O=C(CN(c1cc(C(F)(F)F)ccc1Cl)S(=O)(=O)c1ccc(C(F)(F)F)cc1Cl)NCc1ccncc1 [CCC-Lu25-50] | 95 | – | 30.2 | – | – |
| O=C(CN(c1cc(C(F)(F)F)ccc1Cl)S(=O)(=O)c1ccccc1)NCc1cccnc1 [CCC-Lu25-51] | 80 | – | > 50 | – | – |
| O=C(CN(c1cc(C(F)(F)F)ccc1Cl)S(=O)(=O)c1ccccc1)NCc1cncnc1 [CCC-Lu25-52] | 80 | – | > 50 | – | – |
| O=C(CN(c1cc(C(F)(F)F)ccc1Cl)S(=O)(=O)c1ccccc1)NCc1ccncn1 [CCC-Lu25-53] | 70 | – | > 50 | – | – |
| O=C(CN(c1cc(C(F)(F)F)ccc1Cl)S(=O)(=O)c1ccccc1)N1CCc2cnccc2C1 [CCC-Lu25-54] | 50 | – | > 50 | – | – |
| CC(C)(C)OC(=O)N1CCC(CNC(=O)CN(c2cc(C(F)(F)F)ccc2Cl)S(=O)(=O)c2ccccc2)CC1 [CCC-Lu25-55] | 95 | – | 19.1 | – | – |
| CC(C)(C)CC(=O)NCCNC(=O)CN(c1cc(C(F)(F)F)ccc1F)S(=O)(=O)c1ccccc1 [CCC-Lu25-56] | 70 | – | 28.4 | – | – |
| CN1CCC(CNC(=O)CN(c2cc(C(F)(F)F)ccc2Cl)S(=O)(=O)c2ccccc2)CC1 [CCC-Lu25-61-1] | 30 | – | > 50 | – | – |
| C[N+]1(C)CCC(CNC(=O)CN(c2cc(C(F)(F)F)ccc2Cl)S(=O)(=O)c2ccccc2)CC1 [CCC-Lu25-61-2] | 30 | – | > 50 | – | – |
| O=C(NCc1ccncc1)c1cc2ccccc2n1S(=O)(=O)c1ccccc1 [IHVR 13022-1] | 60 | 65 | > 50 | – | inhibition at 1 µM (HBV cccDNA; Concentration 1 μM): 50% |
| Cc1cc2cc(NC(=O)c3ccc(S(=O)(=O)N(C)Cc4ccccc4)cc3)ccc2[nH]1 [IHVR-13003-1] | 3 | 5 | > 50 | 10 | – |
| CN(Cc1ccccc1)S(=O)(=O)c1ccc(C(=O)Nc2ccc3ncsc3c2)cc1 [IHVR-13004] | 50 | – | 34.1 | – | inhibition at 0.3 µM (HBV cccDNA): 0%; inhibition at 1 µM (HBV cccDNA; Concentration 1 μM): 0% |
| Cc1nc2ccc(NC(=O)c3ccc(S(=O)(=O)N(C)Cc4ccccc4)cc3)cc2s1 [IHVR-13006] | 50 | – | 5.9 | – | inhibition at 0.3 µM (HBV cccDNA): 2%; inhibition at 1 µM (HBV cccDNA; Concentration 1 μM): 50% |
| CN(Cc1ccccc1)S(=O)(=O)c1ccc(C(=O)NCc2ccncc2)cc1 [IHVR-13009] | 15 | 15 | > 50 | 30 | – |
| Cc1nc2cc(NC(=O)CN(c3cc(C(F)(F)F)ccc3Cl)S(=O)(=O)c3ccccc3)ccc2s1 [IHVR-13102] | 30 | 80 | > 50 | 30 | – |
| O=C(CN(c1cc(C(F)(F)F)ccc1Cl)S(=O)(=O)c1ccccc1)NCc1ccncc1 [IHVR-13106] | – | – | – | – | cccDNA inhibition % Reduction (HBV cccDNA; Concentration 1 μM, 1 µM): 0%; cccDNA inhibition % Reduction (HBV cccDNA; Concentration 3 μM, 3 µM): 70%; cccDNA inhibition % Reduction (HBV cccDNA; Concentration 10 μM, 10 µM): 80%; CC50 (HepDE19 cells): > 50 µM |
| O=C(NCc1ccncc1)C1CCCN1S(=O)(=O)c1ccccc1 (stereo not drawn) [IHVR-13108] | 70 | 50 | > 50 | – | inhibition at 1 µM (HBV cccDNA; Concentration 1 μM): 10% |
| CN1CCN(c2ccc(CNC(=O)CN(c3cc(C(F)(F)F)ccc3Cl)S(=O)(=O)c3ccccc3)cc2)CC1 [IHVR-29022] | 30 | – | 49.5 | – | – |
| CN1CCN(c2cccc(CNC(=O)CN(c3cc(C(F)(F)F)ccc3Cl)S(=O)(=O)c3ccccc3)c2)CC1 [IHVR-29023] | 30 | – | 38.7 | – | – |

From patent US9657013B2, “Inhibitors of hepatitis B virus covalently closed circular DNA formation and their method of use” (priority 2012, dated 2017)
